For 28 compounds, IC50 results are on record in patent publication US8304422B2, “Compositions and methods for inhibition of the JAK pathway” (Rigel Pharmaceuticals, Inc., priority 2007, dated 2012).

This test relates to BaF3 V617F cells; UKE-1. Put plainly: Proliferation Assay (Cell Titer-Glo; Example 7). The conditions noted are these: proliferation 72 hours, inhibit JAK2 activity, cell line (BaF3 V617F or UKE-1) not stated. The class given is cell-based. The procedure:
BaF3 V617F cells are maintained and plated in RPMI with 10% FBS. Plating density for these cells is 1×10^5 cells/mL.
UKE-1 are maintained and plated in Iscove's DMEM containing 10% FBS, 10% equine serum, 1% penicillin/streptomycin and 1 uM hydrocortisone. Plating density for these cells is 0.4×10^6 cells/mL
The cells were resuspended in a corresponding medium at a required cell density (see above). 100μ of cell suspension was added to each well of a flat bottom 96 well white plate. The compound was serially diluted in DMSO from 5 mM in 3-fold dilutions, and then diluted 1:250 in the RPMI 1640 medium containing 5% FBS and pen/strep. 100 μL of resulting 2× compound solution was added per well in duplicate and the cells were allowed to proliferate for 72 hours at 37° C.
Proliferation was measured using Cell Titer-Glo. The substrate was thawed and allowed to come to room temperature. After removal of top 100 μL of medium from each well, 100 μL of the premixed Cell Titer-Glo reagent was added to each well. The plates were mixed on an orbital shaker for three minutes to induce lysis and incubated at ambient temperature for an additional five minutes to allow the signal to equilibrate. The Luminescence was read on the Wallac Plate Reader.
The results of the ability of the compounds of the invention to inhibit JAK2 activity, when tested in the above assay, are shown in the following Table XI wherein the level of activity (i.e., the IC50) for each compound is indicated in Table XI. The compound numbers in Table XI refers to the compounds disclosed herein as being prepared by the methods disclosed herein: […]
`CN1CCC(c2ccc(Nc3ncc(Cl)c(Nc4ccc(CNS(=O)(=O)N(C)C)cc4)n3)cc2)CC1` [II-98, 5-Chloro-N4-[(4-(dimethylamino)sulfonylamino)methylphenyl]-N2-[4-(1-methyl-4-piperidinyl)pheny]-2,4-pyrimidinediamine]: the concentration for half-maximal inhibition (IC50) was determined as 0.264 µM.

For `CCS(=O)(=O)N1CCc2c(cccc2Nc2nc(Nc3cc(C)c(OC)c(C)c3)ncc2Cl)C1` [VI-4, 5-Chloro-N2-(3,5-dimethyl-4-methoxyphenyl)N4-[1,2,3,4-tetrahydro-2-(ethylsulfonyl)-5-isoquinolinyl]-2,4-pyrimidinediamine], inhibition was half-maximal at 1.21 µM (IC50).

The compound `COc1cc(Nc2ncc(C)c(Nc3ccc(CNS(=O)(=O)C4CC4)cc3)n2)cc(Cl)c1OC` [II-198, 5-Methyl-N4-[4-(N-cyclopropylsulfonylamino)methylphenyl]-N2-[3,4-dimethoxy-5-chlorophenyl]-2,4-pyrimidinediamine] registered an IC50 of 0.116 µM.

In turn, `Cc1cnc(Nc2ccc(N3CCN(C)CC3)cc2)nc1Nc1ccc2c(c1)[C@H](NS(C)(=O)=O)CC2` [V-14, (1R)-5-Methyl-N2-[4-(4-methyl-1-piperazinyl)phenyl]-N4-[1-(methylsulfonyl)aminoindan-6-yl]-2,4-pyrimidinediamine] showed a concentration for half-maximal inhibition (IC50) of 2.69 µM.

As to “5-Chloro-N4-[4-(N-cyclopropylsulfonylamino)methylphenyl]-N2-[2,4-dimethyl-5-chlorophenyl]-2,4-pyrimidinediamine [II-213]”, the IC50 came to 2.49 µM. This IC50 and that of the compound before are within 1.5-fold of each other.

With `Cc1cnc(Nc2ccc(N3CCN(C)CC3)cc2)nc1Nc1cccc(S(=O)(=O)N(C)C)c1` [I-14, N4-[(3-(1,1-Dimethylamino)sulfonyl)phenyl]-5-methyl-N2-[4-(4-methyl-1-piperazinyl)phenyl]-2,4-pyrimidinediamine], the IC50 was found to be 0.225 µM. Against the preceding compound, the IC50 is about 11-fold lower.

Compound `Cc1cnc(Nc2ccc(-c3cccnc3)cc2)nc1Nc1ccc2c(c1)[C@H](NS(C)(=O)=O)CC2` [V-12, (1R)-5-Methyl-N4-[1-(methylsulfonyl)aminoindan-6-yl]-N2-[4-(3-pyridinyl)phenyl]-2,4-pyrimidinediamine] had an IC50 of 0.668 µM.

`CN1CCC(c2ccc(Nc3ncc(Cl)c(Nc4cccc(S(=O)(=O)NC(C)(C)C)c4)n3)cc2)CC1` [I-17, 5-Chloro-N4-[3-(N-tert-butylsulfonyl)phenyl]-N2-[4-(N-methylpiperidin-4-yl)phenyl]-2,4-pyrimidinediamine]: the half-inhibitory concentration (IC50) was found to be 0.99 µM.

Regarding “5-Chloro-N4-[4-[N-cyclopropylsulfonyl)-N′-(3-(4-morpholine)propion-1-yl)amino]methylphenyl]-N2-(3,5-dimethyl-4-methoxyphenyl)-2,4-pyrimidinediamine [II-141]”, the IC50 is 0.0739 µM.

For `CCN1CCN(c2ccc(Nc3ncc(C)c(Nc4ccc(CNS(=O)(=O)C5CC5)cc4)n3)cc2)CC1` [II-204, 5-Methyl-N4-[4-(N-cyclopropylsulfonylamino)methylphenyl]-N2-[4-(N-ethylpiperizin-4-yl)phenyl]-2,4-pyrimidinediamine], the IC50 was 0.175 µM.

Turning to `CCNS(=O)(=O)NCc1ccc(Nc2nc(Nc3cc(C)c(OC)c(C)c3)ncc2C)cc1` [II-116, N2-(3,5-Dimethyl-4-methoxyphenyl)-N4-[(4-(ethylamino)sulfonylamino)methylphenyl]-5-methyl-2,4-pyrimidinediamine], the IC50 was 0.0737 µM.

As to `Cc1cnc(Nc2cncc(C)c2N2CCN(C)CC2)nc1Nc1ccc2c(c1)S(=O)(=O)NCC2` [VII-6, 5-Methyl-N4-[3,4-dihydro-1,1-dioxide-2H-1,2-benzothiazin-7-yl]-N2-[5-methyl-4-(N-methylpiperizin-4-yl)pyridine-3-yl]-2,4-pyrimidinediamine], the IC50 stood at 1.9 µM.

`CCNS(=O)(=O)NCc1ccc(Nc2nc(Nc3cc(Cl)c(OC)c(Cl)c3)ncc2C)cc1` [II-119, N2-[3,5-Dichloro-4-methoxyphenyl]-N4-[(4-(ethylamino)sulfonylamino)methylphenyl]-5-methyl-2,4-pyrimidinediamine] returned a half-maximal inhibitory concentration (IC50) of 1.36 µM.

On to `Cc1cc(Nc2ncc(C)c(Nc3ccc(CNS(=O)(=O)C4CC4)cc3)n2)ccc1N1CCN(C)CC1` [II-202, 5-Methyl-N4-[4-(N-cyclopropylsulfonylamino)methylphenyl]-N2-[3-methyl-4-(N-methylpiperizin-4-yl)phenyl]-2,4-pyrimidinediamine], for which half-maximal inhibition (IC50) was put at 1.44 µM.

With `CCc1cnc(Nc2ccc(C3CCN(C)CC3)cc2)nc1Nc1ccc(CNS(=O)(=O)C2CC2)cc1` [II-88, N4-[4-(N-Cyclopropylsulfonylamino)methylphenyl]-5-ethyl-N2-[4-(1-methyl-4-piperidinyl)pheny]-2,4-pyrimidinediamine], 0.833 µM corresponded to half-maximal inhibition (IC50).

`CCc1cnc(Nc2ccc(N3CCN(C)CC3)cc2)nc1Nc1ccc(CNS(=O)(=O)C2CC2)cc1` [II-86, N4-[4-(N-Cyclopropylsulfonylamino)methylphenyl]-5-ethyl-N2-[4-(4-methyl-1-piperazinyl)phenyl]-2,4-pyrimidinediamine]: inhibition was half-maximal at 0.724 µM (IC50).

`CCOc1c(C)cc(Nc2ncc(Cl)c(Nc3ccc(CNS(=O)(=O)NC4CC4)cc3C)n2)cc1C` [II-176, 5-Chloro-N2-(3,5-dimethyl-4-ethoxyphenyl)-N4-[2-methyl-4-((N-cyclopropylamino)sulfonylamino)methylphenyl]-2,4-pyrimidinediamine] registered an IC50 of 0.19 µM.

On to `O=S(=O)(NCc1ccc(Nc2nc(Nc3ccc(N4CCN(C5CC6CCC5C6)CC4)c(F)c3)ncc2Cl)cc1)C1CC1` (stereo not shown) [II-79, N-(4-(2-(4-(4-(bicyclo[2.2.1]heptan-2-yl)piperazin-1-yl)-3-fluorophenylamino)-5-chloropyrimidin-4-ylamino)benzyl)cyclopropanesulfonamide], for which it took 3.16 µM to reach half-maximal inhibition (IC50).

Compound `CCNS(=O)(=O)NCc1cccc(Nc2nc(Nc3ccc(N4CCN(C)CC4)cc3)ncc2F)c1` [II-138, N4-[3-((Ethylamino)sulfonylamino)methylphenyl]-5-fluoro-N2-[4-(4-methyl-1-piperazinyl)phenyl]-2,4-pyrimidinediamine] registered an IC50 of 0.726 µM.

Compound `CN1CCN(c2ccncc2Nc2ncc(Cl)c(Nc3ccc4c(c3)S(=O)(=O)NCC4)n2)CC1` [VII-3, 5-Chloro-N4-[3,4-dihydro-1,1-dioxide-2H-1,2-benzothiazin-7-yl]-N2-[4-(N-methylpiperizin-4-yl)pyridine-3-yl]-2,4-pyrimidinediamine] returned a half-inhibitory concentration (IC50) of 1.17 µM.

The compound `CCNS(=O)(=O)NCc1ccc(Nc2nc(Nc3cc(C)c(OC)c(Cl)c3)ncc2Cl)cc1` [II-110, 5-Chloro-N2-(3-chloro-4-methoxy-5-methylphenyl)-N4-[(4-(ethylamino)sulfonylamino)methylphenyl]-2,4-pyrimidinediamine] yielded a half-maximal inhibitory concentration (IC50) of 0.601 µM.

The compound `CCCN1CCN(c2ccc(Nc3ncc(Cl)c(Nc4ccc(CCNS(=O)(=O)C5CC5)cc4)n3)c(C(F)(F)F)c2)CC1` [II-54, 5-Chloro-N4[4-(N-cyclopropylsulfonylamino)ethylphenyl]-N2-[4-(4-propylpiperazino)-2-trifluoromethylphenyl]-2,4-pyrimidinediamine] came in with a half-maximal inhibitory concentration (IC50) of 1.97 µM.

`Cc1cc(Nc2ncc(C)c(Nc3ccc(CNS(=O)(=O)C4CC4)cc3)n2)ccc1N1C[C@@H]2C[C@H]1CN2C` [II-184, N4-[4-(N-Cyclopropylsulfonylamino)methylphenyl]-5-methyl-N2-[3-methyl-4-[(1S,4S)-5-methyl-2,5-diazabicyclo[2.2.1]hept-2-yl]phenyl]-2,4-pyrimidinediamine] returned a concentration for half-maximal inhibition (IC50) of 0.892 µM.

`CCNS(=O)(=O)NCc1ccc(Nc2nc(Nc3cc(OC)c(OC)c(OC)c3)ncc2Cl)cc1` [II-112, 5-Chloro-N4-[(4-(ethylamino)sulfonylamino)methylphenyl]-N2-(3,4,5-trimethoxyphenyl)-2,4-pyrimidinediamine] yielded a concentration for half-maximal inhibition (IC50) of 0.431 µM.

As for “N2-[3,4-Dimethyl-4-(2-(4-morpholinyl)ethoxy)phenyl]-N4-[4-((N-cyclopropylamino)sulfonylamino)methylphenyl]-5-methyl-2,4-pyrimidinediamine [II-174]”, the concentration for half-maximal inhibition (IC50) was 0.127 µM.

The compound `COc1c(Cl)cc(Nc2ncc(Cl)c(Nc3ccc(CNS(=O)(=O)N(C)C)cc3)n2)cc1Cl` [II-94, 5-Chloro-N2-[3,5-dichloro-4-methoxyphenyl]-N4-[(4-(dimethylamino)sulfonylamino)methylphenyl]-2,4-pyrimidinediamine] showed an IC50 of 13.5 µM.

For `Cc1cc(CNS(=O)(=O)C2CC2)cc(Nc2nc(Nc3ccc(N4CCN(C5CC6CCC5C6)CC4)cc3)ncc2Cl)c1` (stereo not shown) [II-76, N-(3-(2-(4-(4-(bicyclo[2.2.1]heptan-2-yl)piperazin-1-yl)phenylamino)-5-chloropyrimidin-4-ylamino)-5-methylbenzyl)cyclopropanesulfonamide], the IC50 turned out to be 1.31 µM. Against the preceding compound, the IC50 is about 10-fold lower.

In the case of `Cc1cc(Nc2ncc(Cl)c(Nc3ccc(CNS(=O)(=O)C4CC4)cc3)n2)cc(C)c1OC(C)C` [II-220, 5-Chloro-N4-[4-(N-cyclopropylsulfonylamino)methylphenyl]-N2-[3,5-dimethyl-4-(2-propoxy)phenyl]-2,4-pyrimidinediamine], the midpoint of inhibition, the IC50, lay at 0.121 µM. This IC50 lies about 11-fold lower than the previous one.

What is called IC50 is the concentration that gives 50% inhibition. Lower therefore signals greater potency.
